Series [1] can be described thus: MM xenograft mouse model, body weight / systemic toxicity. Type of series: in vivo, C.B.-17 SCID mice. The note with it: 1 mg/kg bortezomib equivalent, intravenous, days 1, 4, 8, and 11. As for the experimental part: MM Xenograft Mouse Model. C.B.-17 SCID mice (Harlan Laboratories) were irradiated with 150 rad and were inoculated subcutaneously with 5×10^6 NCI-H929 cells. When tumors were palpable, mice were distributed into 6 groups of 5 mice and were treated intravenously with the various bortezomib pro-drugs, free bortezomib, or vehicle (PBS), on days 1, 4, 8, and 11. Animals were monitored for body weight and tumor volume.
Liposomal Pro-Drugs Inhibit Tumor Growth with Reduced Systemic Toxicity In Vivo. […] Thus, in vivo studies were performed on C.B-17 SCID mice injected with NCI-H929 tumors to evaluate the efficacy of the liposomal pro-drugs in inhibiting tumor growth and limiting toxicity. The mice were divided into six groups (control, free bortezomib, and one group for each pro-drug) of five mice. The mice were monitored for body weight and tumor volume every other day. When the tumors became palpable, intravenous injections of the respective bortezomib formulations at a dose of 1 mg/kg bortezomib equivalent nanoparticles were performed on days 1, 4, 8, and 11.

Series [2] deals with MCF7 cells (very low HER2 expression). The experiment in a line: Cellular binding assay, flow cytometry (MCF7). The note with it: fluorescein labeled peptide, negative control cell line. As to the method: (§1) HER2 or VLA-4 Expression Analysis and Cell-Based Peptide Binding Assays. For antibody binding assays, cells were incubated with the primary antibody in binding buffer (1.5% BSA in PBS pH 7.4) on ice for 1 hour and were washed twice. Fluorescein conjugated secondary antibody was added for 1 hour on ice, samples were washed, and analyzed on Guava easyCyte 8HT flow cytometer (Millipore). For cell-based peptide binding assays, cells were incubated with increasing concentrations of fluorescein-conjugated peptides for 2 hours on ice. Samples were washed twice and analyzed on Guava easyCyte 8HT flow cytometer.
(In general: Flow cytometry measures light scatter and fluorescence of single cells or particles in a stream.)

For series [3], the target named is extracellular HER2 domain (Homo sapiens, UniProt P04626). The note with it: reported by Berezov et al., recombinant soluble HER2 protein; cited from earlier work.
For series [4], the system named is NCI-H929 myeloma cells (VLA-4 expressing). Description: Cell-based peptide binding assay (NCI-H929). The note with it: fluorescein labeled peptide, flow cytometry, read-out: apparent Kd. As for the experimental part:
as §1
Receptor Expression Analysis and Cell-Based Peptide Binding Assays. For VLA-4 expression assays, cells were incubated with anti-CD49d (phycoerythrin) or anti-CD29 (fluorescein) antibodies (BD Biosciences, San Jose, Calif.) in binding buffer (1.5% BSA in PBS pH 7.4) on ice for 1 hour and were washed twice. For HER2 expression assays, cells were incubated with primary antibody in binding buffer on ice for 1 hour and washed twice. Fluorescein conjugated secondary antibody was added for 1 hour on ice, samples were washed, and analyzed on Guava easyCyte 8HT flow cytometer (Millipore). Isotype matched antibodies were used as negative controls. […] Samples were washed twice and analyzed on Guava easyCyte 8HT flow cytometer.

For series [5], the system named is MM.1S myeloma cells (VLA-4 expressing). Description: Cell-based peptide binding assay (MM.1S). The note with it: fluorescein labeled peptide, MM.1S cells, flow cytometry; read-out: apparent Kd. As for the experimental part: Receptor Expression Analysis and Cell-Based Peptide Binding Assays. For VLA-4 expression assays, cells were incubated with anti-CD49d (phycoerythrin) or anti-CD29 (fluorescein) antibodies (BD Biosciences, San Jose, Calif.) in binding buffer (1.5% BSA in PBS pH 7.4) on ice for 1 hour and were washed twice. For HER2 expression assays, cells were incubated with primary antibody in binding buffer on ice for 1 hour and washed twice. Fluorescein conjugated secondary antibody was added for 1 hour on ice, samples were washed, and analyzed on Guava easyCyte 8HT flow cytometer (Millipore). Isotype matched antibodies were used as negative controls. For cell-based peptide binding assays, cells were incubated with increasing concentrations of fluorescein-conjugated peptides for 2 hours on ice. Samples were washed twice and analyzed on Guava easyCyte 8HT flow cytometer.

The subject of series [6] is VLA-4-overexpressing multiple myeloma cells. Description: In vitro nanoparticle uptake, result stated jointly for the myeloma lines. It counts as cell-based. The note with it: competition experiment, NCI-H929 and MM.1S. As for the experimental part:
In Vitro Liposome Uptake and Binding Assays. 1×10^5 cells/well were plated 24 hours prior to each experiment in a 24 well dish. Liposomes were added at 100 μM phospholipid concentration and incubated for 3 hours at 37° C. 0.2% fluorescein PE was added as a fluorescent marker to each liposomal formulation. For adherent cells, after incubation, cells were washed 3 times with PBS, trypsinized, and analyzed via flow cytometry. For suspension cells, after incubation, cells were washed 3 times with PBS and analyzed via flow cytometry. For binding assays, adherent cells were scraped from the surface of a confluent dish, placed in growth media, and incubated on ice for 30 minutes. Liposomes were added at variable concentrations and incubated for 2 hours on ice. After incubation, cells were washed 3 times with PBS and analyzed via flow cytometry.
In Vitro Nanoparticle Uptake Assays. 1×10^5 cells/well were plated 24 hours prior to each experiment in a 24 well dish. Nanoparticles were added at 100 μM phospholipid concentration and incubated for 3 hours at 37° C. […] For suspension cells, after incubation, cells were washed 3 times with PBS and analyzed via flow cytometry. For adherent cells, after incubation, cells were washed 3 times with PBS, trypsinized, and analyzed via flow cytometry.

Broadly, the pKd is the negative decadic logarithm of the Kd, by convention in mol/L.

pKd: −log10 of the molar value. Entries after “also recorded” stand apart in the source; their conditions may differ. Like-named read-outs stand apart in the source and are kept apart here.

Take `CC(C)C[C@H](NC(=O)[C@H](Cc1ccccc1)NC(=O)c1cnccn1)B(O)O` [free bortezomib, bortezomib]: the “systemic toxicity” value in series [1] was “moribundity on day 7; also recorded: moribundity by day 7”.

For YCDGFYACYMDV [HER2-pep], the “binding to MCF7 cells” value in series [2] is recorded as “minimal binding”. Moreover, the negative-log Kd (pKd) in series [3] is 6.82.

Regarding YCDPC [VLA4-pep], the pKd is 6.60 in series [4] (listed as VLA4pep), ~6.60 in series [4] and 6.60 in series [5]. The “inhibition of uptake of VLA-4-targeted liposomes by excess free peptide” value in series [6] (LPVLA4pep(K3)) is “efficient inhibition of uptake”. Besides, the “inhibition of uptake of VLA-4-targeted micelles by free peptide” value in series [6] (micelles with VLA4pep(K3)) is listed as “significant inhibition”.

Values taken from patent US10342846B2, “Nanoparticle drug delivery systems” (University of Notre Dame du Lac, priority 2013, dated 2019).
